# Columns and labels:
# Assay in all cases: viability relative to DMSO control (fraction); higher = less drug effect (more viable cells)
# Conditions in all cases: 48 h
# [1] = tested on: primary AML patient cells (S060)
# Procedure, shortened: (§1)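 In 384-well plates with compounds pre-plated at five concentrations (one well per concentration), primary mononuclear tumour cells were plated at 4 × 10^4 cells per well. The cells came from blood or bone marrow by Ficoll isolation or from processed lymph node, and were used fresh or cryopreserved. Culture ran for 48 h at 37 °C and 5% CO2 in RPMI-1640 containing penicillin/streptomycin, L-glutamine and human serum. Viability was read as CellTiter-Glo luminescence, normalised to the median of 16 inner DMSO wells.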
# [2] = tested on: primary AML patient cells (S017)
# Procedure, shortened: as §1
# [3] = tested on: primary T-PLL patient cells (S008)
# Procedure, shortened: as §1
# [4] = tested on: primary AML patient cells (S009)
# Procedure, shortened: as §1
# [5] = tested on: primary AML patient cells (S089)
# Procedure, shortened: as §1
# [6] = tested on: primary AML patient cells (S037)
# Procedure, shortened: as §1
# [7] = tested on: primary AML patient cells (S091)
# Procedure, shortened: as §1
# [8] = tested on: primary AML patient cells (S072)
# Procedure, shortened: as §1
# [9] = tested on: primary BL patient cells (S005)
# Procedure, shortened: as §1
# [10] = tested on: primary AML patient cells (S025)
# Procedure, shortened: as §1
# [11] = tested on: primary MCL patient cells (S068)
# Procedure, shortened: as §1
# [12] = tested on: primary CLL patient cells (S043)
# Procedure, shortened: as §1
# [13] = tested on: primary AML patient cells (S002)
# Procedure, shortened: as §1
# [14] = tested on: primary B-PLL patient cells (S016)
# Procedure, shortened: as §1
# [15] = tested on: primary MCL patient cells (S053)
# Procedure, shortened: as §1
# [16] = tested on: primary AML patient cells (S021)
# Procedure, shortened: as §1
# [17] = tested on: primary AML patient cells (S071)
# Procedure, shortened: as §1
# [18] = tested on: primary DLBCL patient cells (S082)
# Procedure, shortened: as §1
# [19] = tested on: primary AML patient cells (S081)
# Procedure, shortened: as §1
structure (smiles),measurement,setting,value
O=C(O)CSc1cc(NS(=O)(=O)c2ccc(Br)cc2)c2ccccc2c1O [UMI-77],viability,[1]; 0.024 µM,1.1
same,viability,[1]; 0.12 µM,1.13
same,viability,[1]; 0.6 µM,1.04
same,viability,[1]; 3 µM,1.03
same,viability,[1]; 15 µM,0.73
same,viability,[2]; 0.024 µM,1.01
same,viability,[2]; 0.12 µM,1.02
same,viability,[2]; 0.6 µM,0.983
same,viability,[2]; 3 µM,0.99
same,viability,[2]; 15 µM,0.436
same,viability,[3]; 0.024 µM,0.976
same,viability,[3]; 0.12 µM,0.968
same,viability,[3]; 0.6 µM,0.91
same,viability,[3]; 3 µM,0.948
same,viability,[3]; 15 µM,0.815
same,viability,[4]; 0.024 µM,0.914
same,viability,[4]; 0.12 µM,0.914
same,viability,[4]; 0.6 µM,0.802
same,viability,[4]; 3 µM,0.571
same,viability,[4]; 15 µM,0.0548
same,viability,[5]; 0.024 µM,0.835
same,viability,[5]; 0.12 µM,0.672
same,viability,[5]; 0.6 µM,0.737
same,viability,[5]; 3 µM,1.03
same,viability,[5]; 15 µM,0.998
same,viability,[6]; 0.024 µM,1.05
same,viability,[6]; 0.12 µM,1.04
same,viability,[6]; 0.6 µM,0.985
same,viability,[6]; 3 µM,0.978
same,viability,[6]; 15 µM,0.633
same,viability,[7]; 0.024 µM,1.02
same,viability,[7]; 0.12 µM,1.03
same,viability,[7]; 0.6 µM,1.13
same,viability,[7]; 3 µM,1.32
same,viability,[7]; 15 µM,0.996
same,viability,[8]; 0.024 µM,0.956
same,viability,[8]; 0.12 µM,0.949
same,viability,[8]; 0.6 µM,0.94
same,viability,[8]; 3 µM,0.994
same,viability,[8]; 15 µM,0.777
same,viability,[9]; 0.024 µM,0.92
same,viability,[9]; 0.12 µM,0.902
same,viability,[9]; 0.6 µM,0.783
same,viability,[9]; 3 µM,0.812
same,viability,[9]; 15 µM,0.276
same,viability,[10]; 0.024 µM,1.06
same,viability,[10]; 0.12 µM,1.08
same,viability,[10]; 0.6 µM,1.03
same,viability,[10]; 3 µM,1.18
same,viability,[10]; 15 µM,0.46
same,viability,[11]; 0.024 µM,0.957
same,viability,[11]; 0.12 µM,0.817
same,viability,[11]; 0.6 µM,0.767
same,viability,[11]; 3 µM,0.666
same,viability,[11]; 15 µM,0.318
same,viability,[12]; 0.024 µM,0.997
same,viability,[12]; 0.12 µM,0.981
same,viability,[12]; 0.6 µM,0.974
same,viability,[12]; 3 µM,0.979
same,viability,[12]; 15 µM,0.748
same,viability,[13]; 0.024 µM,0.893
same,viability,[13]; 0.12 µM,0.926
same,viability,[13]; 0.6 µM,0.948
same,viability,[13]; 3 µM,0.937
same,viability,[13]; 15 µM,1.03
same,viability,[14]; 0.024 µM,1.11
same,viability,[14]; 0.12 µM,1.11
same,viability,[14]; 0.6 µM,0.994
same,viability,[14]; 3 µM,1.07
same,viability,[14]; 15 µM,0.778
same,viability,[15]; 0.024 µM,1.07
same,viability,[15]; 0.12 µM,0.99
same,viability,[15]; 0.6 µM,0.818
same,viability,[15]; 3 µM,0.873
same,viability,[15]; 15 µM,0.191
same,viability,[16]; 0.024 µM,0.839
same,viability,[16]; 0.12 µM,0.917
same,viability,[16]; 0.6 µM,0.971
same,viability,[16]; 3 µM,0.961
same,viability,[16]; 15 µM,0.623
same,viability,[17]; 0.024 µM,0.883
same,viability,[17]; 0.12 µM,0.921
same,viability,[17]; 0.6 µM,0.879
same,viability,[17]; 3 µM,0.85
same,viability,[17]; 15 µM,0.644
same,viability,[18]; 0.024 µM,0.995
same,viability,[18]; 0.12 µM,1.02
same,viability,[18]; 0.6 µM,0.846
same,viability,[18]; 3 µM,0.908
same,viability,[18]; 15 µM,0.595
same,viability,[19]; 0.024 µM,0.934
same,viability,[19]; 0.12 µM,0.984
same,viability,[19]; 0.6 µM,0.919
same,viability,[19]; 3 µM,0.812
same,viability,[19]; 15 µM,0.329
CCN1CCN(Cc2ccc(Nc3ncc(F)c(-c4cc(F)c5nc(C)n(C(C)C)c5c4)n3)nc2)CC1,viability,[1]; 0.024 µM,1.08
same,viability,[1]; 0.12 µM,1.01
same,viability,[1]; 0.6 µM,0.946
same,viability,[1]; 3 µM,0.534
same,viability,[1]; 15 µM,0.112
same,viability,[2]; 0.024 µM,1.01
same,viability,[2]; 0.12 µM,1.14
same,viability,[2]; 0.6 µM,1.1
same,viability,[2]; 3 µM,0.73
same,viability,[2]; 15 µM,0.179
same,viability,[3]; 0.024 µM,1.04
same,viability,[3]; 0.12 µM,0.981
same,viability,[3]; 0.6 µM,1.08
same,viability,[3]; 3 µM,0.415
same,viability,[3]; 15 µM,0.0352
same,viability,[4]; 0.024 µM,1.05
same,viability,[4]; 0.12 µM,0.955
same,viability,[4]; 0.6 µM,1.03
same,viability,[4]; 3 µM,0.451
same,viability,[4]; 15 µM,0.0338
same,viability,[5]; 0.024 µM,0.589
same,viability,[5]; 0.12 µM,0.962
same,viability,[5]; 0.6 µM,0.576
same,viability,[5]; 3 µM,0.0472
same,viability,[5]; 15 µM,0.0221
same,viability,[6]; 0.024 µM,0.952
same,viability,[6]; 0.12 µM,0.926
same,viability,[6]; 0.6 µM,1.03
same,viability,[6]; 3 µM,0.71
same,viability,[6]; 15 µM,0.255
same,viability,[7]; 0.024 µM,0.77
same,viability,[7]; 0.12 µM,0.939
same,viability,[7]; 0.6 µM,0.849
same,viability,[7]; 3 µM,0.569
same,viability,[7]; 15 µM,0.333
same,viability,[8]; 0.024 µM,0.893
same,viability,[8]; 0.12 µM,1.03
same,viability,[8]; 0.6 µM,0.73
same,viability,[8]; 3 µM,0.251
same,viability,[8]; 15 µM,0.0132
same,viability,[9]; 0.024 µM,1.01
same,viability,[9]; 0.12 µM,1.61
same,viability,[9]; 0.6 µM,0.924
same,viability,[9]; 3 µM,0.725
same,viability,[9]; 15 µM,0.374
same,viability,[10]; 0.024 µM,1.11
same,viability,[10]; 0.12 µM,1.02
same,viability,[10]; 0.6 µM,1.1
same,viability,[10]; 3 µM,0.372
same,viability,[10]; 15 µM,0.0187
same,viability,[11]; 0.024 µM,0.836
same,viability,[11]; 0.12 µM,0.934
same,viability,[11]; 0.6 µM,1.09
same,viability,[11]; 3 µM,0.0754
same,viability,[11]; 15 µM,0.0119
same,viability,[12]; 0.024 µM,0.893
same,viability,[12]; 0.12 µM,1.05
same,viability,[12]; 0.6 µM,0.936
same,viability,[12]; 3 µM,0.58
same,viability,[12]; 15 µM,0.24
same,viability,[13]; 0.024 µM,0.84
same,viability,[13]; 0.12 µM,0.894
same,viability,[13]; 0.6 µM,0.884
same,viability,[13]; 3 µM,0.363
same,viability,[13]; 15 µM,0.139
same,viability,[14]; 0.024 µM,0.997
same,viability,[14]; 0.12 µM,1.09
same,viability,[14]; 0.6 µM,0.984
same,viability,[14]; 3 µM,0.505
same,viability,[14]; 15 µM,0.0112
same,viability,[15]; 0.024 µM,0.896
same,viability,[15]; 0.12 µM,0.737
same,viability,[15]; 0.6 µM,0.565
same,viability,[15]; 3 µM,0.144
same,viability,[15]; 15 µM,0.0105
same,viability,[16]; 0.024 µM,1.01
same,viability,[16]; 0.12 µM,0.962
same,viability,[16]; 0.6 µM,1.22
same,viability,[16]; 3 µM,0.377
same,viability,[16]; 15 µM,0.0751
same,viability,[17]; 0.024 µM,0.728
same,viability,[17]; 0.12 µM,0.533
same,viability,[17]; 0.6 µM,0.39
same,viability,[17]; 3 µM,0.0958
same,viability,[17]; 15 µM,0.0535
same,viability,[18]; 0.024 µM,0.915
same,viability,[18]; 0.12 µM,1.01
same,viability,[18]; 0.6 µM,1.19
same,viability,[18]; 3 µM,0.543
same,viability,[18]; 15 µM,0.0123
same,viability,[19]; 0.024 µM,0.929
same,viability,[19]; 0.12 µM,0.868
same,viability,[19]; 0.6 µM,0.833
same,viability,[19]; 3 µM,0.537
same,viability,[19]; 15 µM,0.174

# Source: the supplement of paper PMC10733146
